# Results from patent US20260327244A1, “PYRIDO[4,3-D]PYRIMIDINE COMPOUNDS” (Pfizer Inc., priority 2022, published 2026).
# Experiments:
# G12D KRAS (aa1-185) = G12D KRAS (aa1-185) (Homo sapiens, UniProt P01116, G12D); assay: biochemical;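 also: surface plasmon resonance at 10 °C, KRAS captured on a streptavidin chip in GDP-containing buffer, compound dilution series injected, blank streptavidin surface as reference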
# Protocol: (§1) SPR assay was used to measure the kinetic binding constant (KD) of Examples of the present invention.
# (§2) The binding affinity and kinetics of Examples of the present invention were measured by Surface Plasmon Resonance (SPR) using Biacore 8K or 8K+ (Cytiva, Marlborough, MA) instruments. Recombinant, C-terminal site-specific biotinylated, wild-type (WT) KRAS (aa1-185), G12D KRAS (aa1-185), G12C KRAS (aa2-184), G12V KRAS (aa2-184), WT HRAS (aa2-184) and WT NRAS (aa2-185) proteins purified in presence of 1 μM GDP were used in these experiments. Binding measurements were performed parallelly in sets of either WT/G12D/G12C/G12V KRAS or WT K/H/N RAS proteins.
# (§3) Biacore instrument was desorbed and docked with a Series S Sensor Chip SA. The proteins were diluted to 50 μg/mL with the assay buffer (50 mM HEPES, 150 mM NaCl, 10 μM GDP, 5 mM MgCl2, 0.5 mM TCEP, 5% glycerol, 0.02% Tween-20, 2% DMSO, pH 7.2) and immobilized at a flow rate of 3 μL/min at 10° C. with a contact time of 15 min. to capture ~3000-4000 RUs of proteins on the surface. The functionalized surface was then equilibrated with assay buffer for approximately 1 hour. Un-functionalized SA surfaces with no immobilized protein served as reference for binding kinetic analysis. Compound binding kinetics were measured in either multi-cycle or single-cycle kinetic format.
# (§4) A 2-fold, 10-point serial dilution of test compounds was set-up in a 96-well microplate (Greiner; Cat #650101) with a top concentration of either 10 μM or 100 μM. Binding kinetics was measured at 10° C. by injecting serial dilution of compounds onto both reference and RAS immobilized channels at a flow rate of 100 μL/min and association time of 90 seconds. Compound dissociation was monitored for at least 400 seconds during each cycle. No additional regeneration was used. DMSO calibration curve was obtained before and after compound analysis by injecting 0-4% of DMSO in assay buffer. A suitable compound with known affinity and kinetics was tested once in every experiment as a positive control to assess activity of the captured protein on the surface.
# (§5) A 3-fold, 6-point serial dilution of compounds was set-up in a deep 96-well microplate (Greiner Bio; Cat #780201) with the highest concentration of 1 μM (concentration range: 0.004-1 μM). Binding kinetics was measured at 10° C. by injecting serial dilutions of compounds in increasing order onto reference as well as RAS immobilized channels at a flow rate of 100 μL/min and association time of 120 seconds. Compound dissociation was monitored for at least 3600 seconds. Two buffer blanks were also run in a single-cycle kinetics format before the compound run for double referencing. No additional regeneration was used. DMSO calibration curve was obtained before and after compound analysis by injecting 0-4% of DMSO in the assay buffer. A suitable compound with known affinity and kinetics was tested once in every experiment as a positive control to assess activity of the captured protein on the surface.
# (§6) Both MCK and SCK data were processed and analyzed using Biacore Insight evaluation software (Cytiva, Marlborough, MA)). […] The adequateness of the fit was judged by c^2 values and the randomness of residue distribution.
# (§7) A geometric mean of binding constant KD was provided when an Example was tested more than once (n is testing replicate number).
# G12C KRAS (aa2-184) = G12C KRAS (aa2-184) (Homo sapiens, UniProt P01116, G12C); assay: biochemical
# G12C KRAS (aa2-184), sequence (P01116 2-184 isoform P01116-2 G12C): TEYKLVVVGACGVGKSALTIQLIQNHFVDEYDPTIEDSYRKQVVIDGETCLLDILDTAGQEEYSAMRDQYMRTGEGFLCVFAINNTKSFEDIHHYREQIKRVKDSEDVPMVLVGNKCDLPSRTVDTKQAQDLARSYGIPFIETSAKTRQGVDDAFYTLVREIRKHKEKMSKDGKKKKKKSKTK
# Protocol: as §1, §2, §3, §4, §5, §6, §7
# G12V KRAS (aa2-184) = G12V KRAS (aa2-184) (Homo sapiens, UniProt P01116, G12V); assay: biochemical
# G12V KRAS (aa2-184), sequence (P01116 2-184 isoform P01116-2 G12V): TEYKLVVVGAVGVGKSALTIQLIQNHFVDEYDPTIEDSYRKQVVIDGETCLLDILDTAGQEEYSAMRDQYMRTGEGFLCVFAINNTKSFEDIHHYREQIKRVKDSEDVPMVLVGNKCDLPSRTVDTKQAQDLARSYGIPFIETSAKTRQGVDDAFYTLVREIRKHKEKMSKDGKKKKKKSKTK
# Protocol: as §1, §2, §3, §4, §5, §6, §7
# [1] = target: T1, wild-type (WT) KRAS (aa1-185) (Homo sapiens, UniProt P01116); assay: KRAS Surface Plasma Resonance (SPR) binding assay, WT KRAS; conditions: SPR at 10 °C, geometric mean when tested more than once
# T1 construct: wild-type (WT) KRAS (aa1-185)
# T1 sequence (P01116 1-185 isoform P01116-2): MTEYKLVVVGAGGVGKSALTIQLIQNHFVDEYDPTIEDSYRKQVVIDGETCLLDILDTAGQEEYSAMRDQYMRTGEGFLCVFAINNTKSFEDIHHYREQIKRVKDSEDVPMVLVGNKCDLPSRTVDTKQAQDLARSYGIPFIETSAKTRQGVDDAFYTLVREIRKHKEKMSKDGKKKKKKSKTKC
# From the text: No additional regeneration was used.
# Compound dissociation was monitored for at least 3600 seconds. […] No additional regeneration was used.
# G12D KRAS (aa1-185), sequence (P01116 1-185 isoform P01116-2 G12D): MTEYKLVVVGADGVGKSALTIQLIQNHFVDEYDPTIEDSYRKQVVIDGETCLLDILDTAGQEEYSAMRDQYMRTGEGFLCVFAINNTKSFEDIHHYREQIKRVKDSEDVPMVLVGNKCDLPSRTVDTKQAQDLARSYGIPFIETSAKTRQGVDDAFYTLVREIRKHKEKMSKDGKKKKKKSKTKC
Kd (G12D KRAS (aa1-185)),Kd (G12C KRAS (aa2-184)),Kd (G12V KRAS (aa2-184)),Kd [1],Compound
0.099 nM,0.447 nM,0.308 nM,0.019 nM,"C#Cc1cccc2cc(O)cc(-c3ncc4c(N5C[C@@H]6C[C@H](C5)[C@H](O)C6)nc(OC[C@@]56CCCN5C[C@H](F)C6)nc4c3F)c12 [Example 9, (1R,5R,6R)-3-[7-(8-ethynyl-3-hydroxynaphthalen-1-yl)-8-fluoro-2-{[(2R,7aS)-2-fluorotetrahydro-1H-pyrrolizin-7a(5H)-yl]methoxy}pyrido[4,3-d]pyrimidin-4-yl]-3-azabicyclo[3.2.1]octan-6-ol]"
1.55 nM,3.65 nM,1.48 nM,5.75 nM,"C#Cc1c(F)ccc2cccc(-c3nc4c5c(nc(OC[C@@]67CCCN6C[C@H](F)C7)nc5c3F)N3CCCC[C@H]3CO4)c12 [Example 29, (8aS)-5-(8-ethynyl-7-fluoronaphthalen-1-yl)-4-fluoro-2-{[(2R,7aS)-2-fluorotetrahydro-1H-pyrrolizin-7a(5H)-yl]methoxy}-8,8a,9,10,11,12-hexahydro-7-oxa-1,3,6,12a-tetraazabenzo[4,5]cyclohepta[1,2,3-de]naphthalene]"
0.081 nM,0.079 nM,0.052 nM,0.145 nM,"C#Cc1c(F)ccc2cc(O)cc(-c3nc4c5c(nc(OC[C@@]67CCCN6C[C@H](F)C7)nc5c3F)N(C)CCO4)c12 [Example 24, 5-ethynyl-6-fluoro-4-(4-fluoro-2-{[(2R,7aS)-2-fluorotetrahydro-1H-pyrrolizin-7a(5H)-yl]methoxy}-10-methyl-9,10-dihydro-8H-7-oxa-1,3,6,10-tetraazacyclohepta[1,2,3-de]naphthalen-5-yl)naphthalen-2-ol]"
0.046 nM,0.031 nM,0.117 nM,0.014 nM,"C#Cc1c(F)ccc2cc(O)cc(-c3nc4c5c(nc(OC[C@@]67CCCN6C[C@H](F)C7)nc5c3F)N(CCO)CCO4)c12 [Example 26, 5-ethynyl-6-fluoro-4-[4-fluoro-2-{[(2R,7aS)-2-fluorotetrahydro-1H-pyrrolizin-7a(5H)-yl]methoxy}-10-(2-hydroxyethyl)-9,10-dihydro-8H-7-oxa-1,3,6,10-tetraazacyclohepta[1,2,3-de]naphthalen-5-yl]naphthalen-2-ol]"
36.9 nM,42.4 nM,46.7 nM,11.9 nM,"Oc1cc(-c2ncc3c(N4C[C@@H]5C[C@H](O)[C@@H]5C4)nc(OC[C@@]45CCCN4C[C@H](F)C5)nc3c2F)c2c(Cl)cccc2c1 (relative stereo) [Example 22, (1R*,5S*,6S*)-3-[7-(8-chloro-3-hydroxynaphthalen-1-yl)-8-fluoro-2-{[(2R,7aS)-2-fluorotetrahydro-1H-pyrrolizin-7a(5H)-yl]methoxy}pyrido[4,3-d]pyrimidin-4-yl]-3-azabicyclo[3.2.0]heptan-6-ol]"
14.1 nM,1.94 nM,3.69 nM,0.308 nM,"C#Cc1cccc2cc(O)cc(-c3ncc4c(N5CCN(C(C)=O)[C@@H](CC#N)C5)nc(OC[C@@]56CCCN5C[C@H](F)C6)nc4c3F)c12 [Example 4, {(2S)-1-acetyl-4-[7-(8-ethynyl-3-hydroxynaphthalen-1-yl)-8-fluoro-2-{[(2R,7aS)-2-fluorotetrahydro-1H-pyrrolizin-7a(5H)-yl]methoxy}pyrido[4,3-d]pyrimidin-4-yl]piperazin-2-yl}acetonitrile]"
78.3 nM,84.7 nM,91.7 nM,27.9 nM,"C#Cc1cccc2cc(O)cc(-c3ncc4c(N5C[C@@H]6C[C@H](O)[C@H](C5)O6)nc(OC[C@@]56CCCN5C[C@H](F)C6)nc4c3F)c12 (single isomer, unassigned) [Example 19, (1S*,5S*,6S*)-3-[7-(8-ethynyl-3-hydroxynaphthalen-1-yl)-8-fluoro-2-{[(2R,7aS)-2-fluorotetrahydro-1H-pyrrolizin-7a(5H)-yl]methoxy}pyrido[4,3-d]pyrimidin-4-yl]-8-oxa-3-azabicyclo[3.2.1]octan-6-ol]"
0.25 nM,1.1 nM,0.24 nM,2.58 nM,"C#Cc1c(F)ccc2cccc(-c3nc4c5c(nc(OC[C@@]67CCCN6C[C@H](F)C7)nc5c3F)N3C[C@@H](O)CC[C@H]3CO4)c12 [Example 30, (8aS,11S)-5-(8-ethynyl-7-fluoronaphthalen-1-yl)-4-fluoro-2-{[(2R,7aS)-2-fluorotetrahydro-1H-pyrrolizin-7a(5H)-yl]methoxy}-8,8a,9,10,11,12-hexahydro-7-oxa-1,3,6,12a-tetraazabenzo[4,5]cyclohepta[1,2,3-de]naphthalen-11-ol]"
0.214 nM,0.759 nM,0.13 nM,0.092 nM,"C#Cc1cccc2cc(O)cc(-c3ncc4c(N5C[C@H]6C[C@@H](O)[C@@H](C5)O6)nc(OC[C@@]56CCCN5C[C@H](F)C6)nc4c3F)c12 (relative stereo) [Example 18, (1R*,5R*,6R*)-3-[7-(8-ethynyl-3-hydroxynaphthalen-1-yl)-8-fluoro-2-{[(2R,7aS)-2-fluorotetrahydro-1H-pyrrolizin-7a(5H)-yl]methoxy}pyrido[4,3-d]pyrimidin-4-yl]-8-oxa-3-azabicyclo[3.2.1]octan-6-ol]"
10.5 nM,11.4 nM,22.1 nM,2.89 nM,"C#Cc1cccc2cc(O)cc(-c3ncc4c(N5CC[C@@](C)(CC#N)C5)nc(OC[C@@]56CCCN5C[C@H](F)C6)nc4c3F)c12 [Example 5, {(3S)-1-[7-(8-ethynyl-3-hydroxynaphthalen-1-yl)-8-fluoro-2-{[(2R,7aS)-2-fluorotetrahydro-1H-pyrrolizin-7a(5H)-yl]methoxy}pyrido[4,3-d]pyrimidin-4-yl]-3-methylpyrrolidin-3-yl}acetonitrile]"
2.43 nM,2.67 nM,1.35 nM,1.89 nM,"C#Cc1cccc2cc(O)cc(-c3ncc4c(N5CC[C@@H](CC#N)C5)nc(OC[C@@]56CCCN5C[C@H](F)C6)nc4c3F)c12 [Example 6, {(3S)-1-[7-(8-ethynyl-3-hydroxynaphthalen-1-yl)-8-fluoro-2-{[(2R,7aS)-2-fluorotetrahydro-1H-pyrrolizin-7a(5H)-yl]methoxy}pyrido[4,3-d]pyrimidin-4-yl]pyrrolidin-3-yl}acetonitrile]"
1.89 nM,1.64 nM,0.515 nM,0.422 nM,"C#Cc1cccc2cc(O)cc(-c3ncc4c(N5C[C@H]6CC[C@@H](C5)O6)nc(OC[C@@]56CCCN5C[C@H](F)C6)nc4c3F)c12 [Example 2, 5-ethynyl-4-(8-fluoro-2-{[(2R,7aS)-2-fluorotetrahydro-1H-pyrrolizin-7a(5H)-yl]methoxy}-4-[(1R,5S)-8-oxa-3-azabicyclo[3.2.1]octan-3-yl]pyrido[4,3-d]pyrimidin-7-yl)naphthalen-2-ol]"
0.004 nM,0.004 nM,0.004 nM,0.009 nM,"C#Cc1c(F)c(F)cc2cc(O)cc(-c3nc4c5c(nc(OC[C@@]67CCCN6C[C@H](F)C7)nc5c3F)N3CCCC[C@H]3CO4)c12 [Example 32, 5-ethynyl-6,7-difluoro-4-[(8aS)-4-fluoro-2-{[(2R,7aS)-2-fluorotetrahydro-1H-pyrrolizin-7a(5H)-yl]methoxy}-8,8a,9,10,11,12-hexahydro-7-oxa-1,3,6,12a-tetraazabenzo[4,5]cyclohepta[1,2,3-de]naphthalen-5-yl]naphthalen-2-ol]"
1.69 nM,1.54 nM,11.5 nM,0.398 nM,"C#Cc1cccc2cc(O)cc(-c3ncc4c(N5CCC[C@@](C)(CC#N)C5)nc(OC[C@@]56CCCN5C[C@H](F)C6)nc4c3F)c12 [Example 8, {(3S)-1-[7-(8-ethynyl-3-hydroxynaphthalen-1-yl)-8-fluoro-2-{[(2R,7aS)-2-fluorotetrahydro-1H-pyrrolizin-7a(5H)-yl]methoxy}pyrido[4,3-d]pyrimidin-4-yl]-3-methylpiperidin-3-yl}acetonitrile]"
1.01 nM,1.9 nM,1.46 nM,1.76 nM,"Oc1cc(-c2ncc3c(N4C[C@H]5C[C@@H](O)[C@H]5C4)nc(OC[C@@]45CCCN4C[C@H](F)C5)nc3c2F)c2c(Cl)cccc2c1 (relative stereo) [Example 21, (1S*,5R*,6R*)-3-[7-(8-chloro-3-hydroxynaphthalen-1-yl)-8-fluoro-2-{[(2R,7aS)-2-fluorotetrahydro-1H-pyrrolizin-7a(5H)-yl]methoxy}pyrido[4,3-d]pyrimidin-4-yl]-3-azabicyclo[3.2.0]heptan-6-ol]"
0.553 nM,0.963 nM,0.269 nM,0.362 nM,"Oc1cc(-c2ncc3c(N4C[C@@H]5C[C@H](C4)[C@H](O)C5)nc(OC[C@@]45CCCN4C[C@H](F)C5)nc3c2F)c2ccccc2c1 [Example 17, (1R,5R,6R)-3-[8-fluoro-2-{[(2R,7aS)-2-fluorotetrahydro-1H-pyrrolizin-7a(5H)-yl]methoxy}-7-(3-hydroxynaphthalen-1-yl)pyrido[4,3-d]pyrimidin-4-yl]-3-azabicyclo[3.2.1]octan-6-ol]"
0.128 nM,0.749 nM,0.274 nM,0.118 nM,"C#Cc1c(F)ccc2cc(O)cc(-c3ncc4c(N5CCC[C@@H](CC#N)C5)nc(OC[C@@]56CCCN5C[C@H](F)C6)nc4c3F)c12 [Example 15, {(3S)-1-[7-(8-ethynyl-7-fluoro-3-hydroxynaphthalen-1-yl)-8-fluoro-2-{[(2R,7aS)-2-fluorotetrahydro-1H-pyrrolizin-7a(5H)-yl]methoxy}pyrido[4,3-d]pyrimidin-4-yl]piperidin-3-yl}acetonitrile]"
